Experimental data as given in ChEMBL document CHEMBL3808275, “Design, synthesis and SARs of novel salicylanilides as potent inhibitors of RANKL-induced osteoclastogenesis and bone resorption” (Eur J Med Chem, 2016).

Tests used:
[1] = Cytotoxicity against mouse RAW264.7 cells assessed as reduction in cell viability after 24 hrs by MTT assay; type: cell-based
RAW264.7 [2] = assay: Inhibition of RANKL-induced osteoclast differentiation in mouse RAW264.7 cells assessed as TRAP-positive multinucleated cells level at 2.5 uM incubated with compound in presence of RANKL for 4 days by TRAP staining based light microscopic analysis relative to RANKL alone; type: functional; set-up: scale not given: the % may be the effect or the level left
RAW264.7 [3] = assay: Cytotoxicity against mouse RAW264.7 cells assessed as reduction in cell viability at 5 uM after 24 hrs by MTT assay; type: cell-based; conditions: raw264.7, 24 h
[4] = Cytotoxicity against mouse RAW264.7 cells assessed as survival rate at 2.5 uM after 24 hrs by MTT assay; type: cell-based; conditions: read-out: Survival
RAW264.7 [5] = assay: Inhibition of RANKL-induced osteoclast differentiation in mouse RAW264.7 cells assessed as reduction in TRAP-positive multinucleated cells level incubated with compound in presence of RANKL for 4 days by TRAP staining based light microscopic analysis relative to RANKL alone; type: functional, cell-based; conditions: RAW264.7, 96 h

| SMILES | CC50 at 24 h [1] [µM] | Activity (RAW264.7 [2]) [%] | Activity (RAW264.7 [3]) | viability at 24 h, 2.5 µM [4] [%] | IC50 (RAW264.7 [5]) [µM] |
| --- | --- | --- | --- | --- | --- |
| O=C(Nc1ccc(Br)cc1F)c1cc(I)ccc1O | 8.4 | 29.9 | Toxic | 104 | – |
| O=C(O)c1cc(I)ccc1O | > 40 | 90.5 | Toxic | 98.9 | – |
| O=C1c2cc(Cl)ccc2Oc2cc([N+](=O)[O-])ccc2N1c1ccc(I)cc1F | > 40 | 73.8 | Toxic | 89.3 | – |
| O=c1oc2ccc(Cl)cc2c(=O)n1-c1ccc(Br)cc1F | 8.1 | 45.5 | Toxic | 114 | – |
| O=C(Nc1ccc(Cl)cc1F)c1cc(Br)ccc1O | 9.2 | 39.6 | Toxic | 103 | – |
| O=c1oc2ccc(Cl)cc2c(=O)n1-c1ccc(I)cc1F | 6.9 | 19.1 | Toxic | 95.5 | 2.05 |
| O=c1oc2ccc(I)cc2c(=O)n1-c1ccc(I)cc1F | 7.6 | 36.1 | Toxic | 107 | – |
| O=c1oc2ccc(F)cc2c(=O)n1-c1ccc(Br)cc1F | 7.2 | 25.5 | Toxic | 103 | – |
| O=C1c2cc(F)ccc2Oc2cc([N+](=O)[O-])ccc2N1c1ccc(Br)cc1F | > 40 | 88.7 | Toxic | 98.8 | – |
| O=C(Nc1ccc(F)cc1F)c1cc(I)ccc1O | 13.7 | 80.5 | Toxic | 103 | – |
| O=C1c2cc(F)ccc2Oc2cc([N+](=O)[O-])ccc2N1c1ccc(F)cc1F | > 40 | 92.4 | Toxic | 90.1 | – |
| O=C(O)c1cc(Br)ccc1O | > 40 | 96.5 | Toxic | 101 | – |
| O=C(Nc1ccc(I)cc1F)c1cc(Cl)ccc1O | 7.6 | 2.9 | Toxic | 108 | 1.84 |
| O=c1oc2ccc(Cl)cc2c(=O)n1-c1ccc(F)cc1F | 13.4 | 91.9 | Toxic | 116 | – |
| O=C(Nc1ccc(Br)cc1F)c1cc(Cl)ccc1O | 7.8 | 23.3 | Toxic | 106 | 2.14 |
| O=c1oc2ccc(Br)cc2c(=O)n1-c1ccc(F)cc1F | 16 | 98.3 | Toxic | 107 | – |
| O=C1c2cc(I)ccc2Oc2cc([N+](=O)[O-])ccc2N1c1ccc(F)cc1F | > 40 | 85.4 | Toxic | 98.2 | – |
| O=C1c2cc(I)ccc2Oc2cc([N+](=O)[O-])ccc2N1c1ccc(Cl)cc1F | > 40 | 75.2 | Toxic | 94.9 | – |
| O=C(Nc1ccc(Br)cc1F)c1cc(F)ccc1O | 7.9 | 8.7 | Toxic | 102 | 1.86 |
| O=C1c2cc(Cl)ccc2Oc2cc([N+](=O)[O-])ccc2N1c1ccc(F)cc1F | > 40 | 70.6 | Toxic | 99.6 | – |
| O=C1c2ccccc2Oc2cc([N+](=O)[O-])ccc2N1c1ccc(Cl)cc1F | > 40 | 97.1 | Toxic | 103 | – |
| O=C(O)c1cc(F)ccc1O | > 40 | 90.9 | Toxic | 102 | – |
| O=C(Nc1ccc(Cl)cc1F)c1cc(F)ccc1O | 7.7 | 27.1 | Toxic | 99.5 | – |
| O=C1c2cc(Br)ccc2Oc2cc([N+](=O)[O-])ccc2N1c1ccc(Cl)cc1F | > 40 | 67.1 | Toxic | 102 | – |
| O=C(Nc1ccc(F)cc1F)c1cc(Br)ccc1O | 13.8 | 95.2 | Toxic | 91.9 | – |
| O=c1oc2ccc(I)cc2c(=O)n1-c1ccc(Cl)cc1F | 8.9 | 38 | Toxic | 117 | – |

| SMILES | CC50 at 24 h [1] [µM] | Activity (RAW264.7 [2]) [%] | Activity (RAW264.7 [3]) | viability at 24 h, 2.5 µM [4] [%] | IC50 (RAW264.7 [5]) [µM] |
| --- | --- | --- | --- | --- | --- |
| O=C1c2cc(Br)ccc2Oc2cc([N+](=O)[O-])ccc2N1c1ccc(F)cc1F | > 40 | 90.1 | Toxic | 94 | – |
| O=C1c2cc(Cl)ccc2Oc2cc([N+](=O)[O-])ccc2N1c1ccc(Br)cc1F | > 40 | 77.2 | Toxic | 100 | – |
| O=c1oc2ccc(F)cc2c(=O)n1-c1ccc(Cl)cc1F | 7.9 | 29.8 | Toxic | 107 | – |
| O=c1oc2ccccc2c(=O)n1-c1ccc(Cl)cc1F | 24.4 | 71.1 | Toxic | 92.5 | – |
| O=C(Nc1ccc(F)cc1F)c1cc(F)ccc1O | 15.7 | 93.7 | Toxic | 99.2 | – |
| O=C(Nc1ccc(Cl)cc1F)c1cc(I)ccc1O | 8.5 | 26.1 | Toxic | 94 | – |
| O=c1oc2ccc(I)cc2c(=O)n1-c1ccc(F)cc1F | 15.7 | 84.8 | Toxic | 97.5 | – |
| O=c1oc2ccccc2c(=O)n1-c1ccc(I)cc1F | 24.5 | 66.7 | Toxic | 105 | – |
| O=C1c2ccccc2Oc2cc([N+](=O)[O-])ccc2N1c1ccc(I)cc1F | > 40 | 88.6 | Toxic | 87.2 | – |
| O=c1oc2ccc(Br)cc2c(=O)n1-c1ccc(Br)cc1F | 7.2 | 54.9 | Toxic | 103 | – |
| O=c1oc2ccc(F)cc2c(=O)n1-c1ccc(F)cc1F | 19.9 | 89.7 | Toxic | 103 | – |
| O=C(Nc1ccc(Br)cc1F)c1cc(Br)ccc1O | 7.8 | 33.1 | Toxic | 99.5 | – |
| O=c1oc2ccc(Br)cc2c(=O)n1-c1ccc(Cl)cc1F | 7.5 | 67.4 | Toxic | 82.1 | – |
| O=C(O)c1cc(Cl)ccc1O [5-CHLOROSALICYLIC ACID] | > 40 | 96.6 | Toxic | 113 | – |
| O=C(Nc1ccc(I)cc1F)c1cc(I)ccc1O | 6 | 35.1 | Toxic | 94.2 | – |
| O=c1oc2ccc(Br)cc2c(=O)n1-c1ccc(I)cc1F | 7.9 | 39 | Toxic | 96.8 | – |
| O=C1c2cc(F)ccc2Oc2cc([N+](=O)[O-])ccc2N1c1ccc(I)cc1F | > 40 | 85.3 | Toxic | 95.3 | – |
| O=c1oc2ccc(I)cc2c(=O)n1-c1ccc(Br)cc1F | 8.3 | 58.2 | Toxic | 109 | – |
| O=C1c2cc(Br)ccc2Oc2cc([N+](=O)[O-])ccc2N1c1ccc(I)cc1F | > 40 | 78.1 | Toxic | 93.2 | – |
| O=C1c2cc(Br)ccc2Oc2cc([N+](=O)[O-])ccc2N1c1ccc(Br)cc1F | > 40 | 84.2 | Toxic | 88.7 | – |
| O=C1c2cc(I)ccc2Oc2cc([N+](=O)[O-])ccc2N1c1ccc(I)cc1F | > 40 | 55.7 | Toxic | 98.9 | – |
| O=C1c2cc(F)ccc2Oc2cc([N+](=O)[O-])ccc2N1c1ccc(Cl)cc1F | > 40 | 93.1 | Toxic | 91.2 | – |
| O=C1c2cc(Cl)ccc2Oc2cc([N+](=O)[O-])ccc2N1c1ccc(Cl)cc1F | > 40 | 59.4 | Toxic | 100 | – |
| O=c1oc2ccc(Cl)cc2c(=O)n1-c1ccc(Cl)cc1F | 6.8 | 32.8 | Toxic | 99.4 | – |
| O=C1c2cc(I)ccc2Oc2cc([N+](=O)[O-])ccc2N1c1ccc(Br)cc1F | > 40 | 84.8 | Toxic | 93.4 | – |
| O=C(Nc1ccc(F)cc1F)c1cc(Cl)ccc1O | 14.6 | 93.3 | Toxic | 109 | – |
